EC50 data for ten compounds are collected here from US12202850B2, “Cyclobutyl purine derivative or salt thereof” (FUJIFILM Corporation, priority 2018, dated 2025).

This assay has as its system adenovirus type 6 (ADV6). The assay can be described thus: Evaluation of anti-adenovirus activity (CRL-11516 cells infected with ADV6, anti-hexon staining). Type of assay: cell-based. The note with it: read-out: Anti-AdV activity EC50.

The structures appear in SMILES notation. Read-outs that look alike come from different tables or passages of the source.

Broadly, the EC50 is the midpoint of the concentration-response curve. As to `Nc1nc2c(ncn2[C@H]2C[C@@H](CO)C2)c(=O)[nH]1` [Comparative Example 1, 2-Amino-9-(cis-3-(hydroxymethyl)cyclobutyl)-1,9-dihydro-6H-purin-6-one, reference compound], the EC50 (Human mastadenovirus C, CRL-11516 cells, ADV6 (50TCID50), 48 hours, 50% reduction of dark brown-stained cells) was greater than 10000 nM.
Regarding `COC(=O)[C@H](C)NP(=O)(OC[C@H]1C[C@@H](n2cnc3c(OC)nc(N)nc32)C1)Oc1ccc(Br)cc1` (stereo partly drawn) [Example 1-1, methyl (((cis-3-(2-amino-6-methoxy-9H-purin-9-yl)cyclobutyl)methoxy)(4-bromophenoxy)phosphoryl)-L-alaninate], the 50% effective concentration (EC50) (Human mastadenovirus C, 48 h) was less than 100 nM.
The same measure, in the same setting: the figure for `COC(=O)[C@H](C)NP(=O)(OC[C@H]1C[C@@H](n2cnc3c(OC)nc(N)nc32)C1)Oc1cccc2ccccc12` (stereo partly drawn) [Example 1-2-1, methyl (((cis-3-(2-amino-6-methoxy-9H-purin-9-yl)cyclobutyl)methoxy)(naphthalen-1-yloxy)phosphoryl)-L-alaninate] is 100 to 1000 nM.
Regarding `COC(=O)[C@H](C)NP(=O)(OC[C@H]1C[C@@H](n2cnc3c(OC)nc(N)nc32)C1)Oc1ccc(Cl)cc1` (stereo partly drawn) [Example 1-2-2, Methyl (((cis-3-(2-amino-6-methoxy-9H-purin-9-yl)cyclobutyl)methoxy)(4-chloro-phenoxy)phosphoryl)-L-alaninate], the EC50 was less than 100 nM.
Consider `COc1nc(N)nc2c1ncn2[C@H]1C[C@@H](COP(=O)(OCCSC(=O)C(C)(C)C)Oc2ccccc2)C1` (stereo partly drawn) [Example 3-1, S-(2-((((cis-3-(2-amino-6-methoxy-9H-purin-9-yl)cyclobutyl)methoxy)(phenoxy)phosphoryl)oxy)ethyl)2,2-dimethylpropanethioate], for which the EC50 (Human mastadenovirus C, 48 h) lay within 1000 to 10000 nM.
As for `COc1nc(N)nc2c1ncn2[C@H]1C[C@@H](COP(=O)(N[C@@H](C)C(=O)OCc2ccccc2)Oc2ccccc2)C1` (stereo partly drawn) [Example 3-2-1, Benzyl (((cis-3-(2-amino-6-methoxy-9H-purin-9-yl)cyclobutyl)methoxy) (phenoxy)phosphoryl)-L-alaninate], the concentration for a half-maximal effect (EC50) (Human mastadenovirus C, 48 h) was in the range of 100 to 1000 nM.
`COC(=O)[C@H](C)NP(=O)(OC[C@H]1C[C@@H](n2cnc3c(OC)nc(N)nc32)C1)Oc1ccccc1` (stereo partly drawn) [Example 3-2-2, Methyl (((cis-3-(2-amino-6-methoxy-9H-purin-9-yl)cyclobutyl)methoxy)(phenoxy)phosphoryl)-L-alaninate]: the EC50 (Human mastadenovirus C, 48 h) fell in the range of 100 to 1000 nM.
For `COc1nc(N)nc2c1ncn2[C@H]1C[C@@H](COP(=O)(N[C@@H](C)C(=O)OC(C)C)Oc2ccccc2)C1` (stereo partly drawn) [Example 3-2-4, Isopropyl (((cis-3-(2-amino-6-methoxy-9H-purin-9-yl)cyclobutyl)methoxy) (phenoxy)phosphoryl)-L-alaninate], the concentration giving a half-maximal response (EC50) (Human mastadenovirus C, 48 h) is 1000 to 10000 nM.
Take `COC(=O)[C@H](C)NP(=O)(OC[C@H]1C[C@@H](n2cnc3c(OC)nc(N)nc32)C1)Oc1ccc(Cl)cc1` (stereo partly drawn) [Example 8-2-1, Methyl (((cis-3-(2-amino-6-methoxy-9H-purin-9-yl)cyclobutyl)methoxy)(4-chlorophenoxy)phosphoryl)-L-alaninate]: where the note is “Human mastadenovirus C, 48 h”, the EC50 was less than 100 nM.
`COC(=O)[C@H](C)NP(=O)(OC[C@H]1C[C@@H](n2cnc3c(OC)nc(N)nc32)C1)Oc1ccc(Cl)cc1` (stereo partly drawn) [Example 8-2-2, Methyl (((cis-3-(2-amino-6-methoxy-9H-purin-9-yl)cyclobutyl)methoxy)(4-chlorophenoxy)phosphoryl)-L-alaninate]: the half-maximal effective concentration (EC50) fell in the range of 100 to 1000 nM.
